This is an account of results in PubChem BioAssay (NCI).

Values joined by “and” are separate entries in the source; they are usually repeats but may differ in a detail not shown here. Equal entries are not always repeated.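 Where inhibition never reached the appropriate level, the endpoint shown equals the highest concentration tested. Otherwise, values were interpolated linearly from a five-concentration, 48-hour dose response in 96-well plates. GI50 = concentration required for 50% inhibition of growth. Definition used: TGI = concentration required for complete inhibition of growth.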

Some test systems named below: U251 CNS; COLO 205 colon; CAKI-1 renal; NCI/ADR-RES ovarian; CCRF-CEM leukemia; 786-0 renal; RXF 393 renal; DU-145 prostate; NCI-H460 lung; SF-295 CNS.
Holding throughout (test): NCI anticancer screen, dose series, 48 h

With `N#C[Se]CCCNS(=O)(=O)C1CC2C=CC1C2` (stereo not given), the GI50 with U251 CNS was 1.08 µM; with COLO 205 colon, 2.3 µM; with CAKI-1 renal, 0.416 µM; in the experiment with NCI/ADR-RES ovarian, 0.57 µM; in the experiment on CCRF-CEM leukemia, 0.484 µM; with 786-0 renal, 0.997 µM. Moreover, the GI50 in the experiment with RXF 393 renal is 0.364 µM; with DU-145 prostate, 1.06 µM; in the experiment with NCI-H460 lung, 0.316 µM; in the experiment on SF-295 CNS, 1.01 µM. Further, the TGI with U251 CNS worked out at 3.36 µM; in the experiment with COLO 205 colon it was 5.83 µM; in the experiment with CAKI-1 renal it was 1.59 µM; with NCI/ADR-RES ovarian, 5.12 µM; with CCRF-CEM leukemia, 38.2 µM; in the experiment with 786-0 renal, 2.33 µM. Further, the TGI with RXF 393 renal turned out to be 1.34 µM; with DU-145 prostate, 2.58 µM; with NCI-H460 lung, 1.27 µM; in the experiment with SF-295 CNS it was 2.43 µM.
As to `O=C(O)c1ccc(C(=O)O)c(C(=O)Nc2ccc3c(c2)C(=O)c2ccccc2-3)c1`, the TGI in the experiment on U251 CNS, in the experiment with COLO 205 colon, in the experiment on CAKI-1 renal, with NCI/ADR-RES ovarian, with CCRF-CEM leukemia and with 786-0 renal was more than 100 µM each time. The TGI in the experiment on RXF 393 renal, in the experiment with DU-145 prostate, in the experiment with NCI-H460 lung and in the experiment on SF-295 CNS was more than 100 µM in each case.
For the molecule `CC(C)(C)c1c2c(c(C(C)(C)C)c3c1OCN(Cc1ccccc1)C3)OCN(Cc1ccccc1)C2`, the TGI is 29.6 µM with U251 CNS; 26.6 µM in the experiment on COLO 205 colon; more than 100 µM with CAKI-1 renal; 41 µM in the experiment with NCI/ADR-RES ovarian; more than 100 µM in the experiment on CCRF-CEM leukemia; 27.7 µM in the experiment with 786-0 renal. Besides, the TGI in the experiment with RXF 393 renal worked out at 36.2 µM; in the experiment with DU-145 prostate, 59.7 µM; with NCI-H460 lung, 28.7 µM; with SF-295 CNS it was 51.6 µM.
Turning to `CC(=O)c1cc(C(=O)c2ccc3c(c2)Sc2ccccc2N3)c2cc(C)ccn12`, the GI50 is 0.138 µM in the experiment on U251 CNS; 0.0598 µM in the experiment on COLO 205 colon; 0.053 µM with CAKI-1 renal; 0.0369 µM in the experiment with NCI/ADR-RES ovarian; 0.257 µM in the experiment on CCRF-CEM leukemia; 0.0965 µM in the experiment with 786-0 renal. For the same molecule, the GI50 with RXF 393 renal was 0.0411 µM; with DU-145 prostate, 0.188 µM; with NCI-H460 lung it was 0.0465 µM; in the experiment on SF-295 CNS, 0.036 µM. Besides, the TGI was more than 100 µM with U251 CNS; 0.346 µM with COLO 205 colon; more than 100 µM in the experiment on CAKI-1 renal; more than 100 µM in the experiment on NCI/ADR-RES ovarian; more than 100 µM with CCRF-CEM leukemia; more than 100 µM with 786-0 renal. Moreover, the TGI was more than 100 µM with RXF 393 renal, more than 100 µM in the experiment with DU-145 prostate, more than 100 µM with NCI-H460 lung and 4.15 µM in the experiment with SF-295 CNS.
As for `O=C(c1ccco1)c1c(C(F)(F)F)n([O-])c2ccc(Cl)cc2[n+]1=O`, the GI50 is 0.487 µM in the experiment on U251 CNS; 1.39 µM in the experiment on COLO 205 colon; 0.961 µM with CAKI-1 renal; 0.819 µM in the experiment on NCI/ADR-RES ovarian; 0.043 µM in the experiment on 786-0 renal; 1.38 µM in the experiment with RXF 393 renal. The GI50 in the experiment with DU-145 prostate was 0.341 µM; with NCI-H460 lung, 0.547 µM; with SF-295 CNS, 1.79 µM. The TGI turned out to be 1.66 µM in the experiment on U251 CNS; 12.8 µM in the experiment with COLO 205 colon; 4.21 µM in the experiment on CAKI-1 renal; 10.3 µM in the experiment with NCI/ADR-RES ovarian; 0.838 µM with CCRF-CEM leukemia; 0.115 µM in the experiment on 786-0 renal. Further, the TGI with RXF 393 renal came to 3.83 µM; in the experiment on DU-145 prostate, 1.44 µM; with SF-295 CNS, 7.05 µM.
On to `O=C(Nc1n[nH]c2nnc(-c3cccnc3)cc12)C1CC1`, for which the GI50 in the experiment with U251 CNS was 1.06 µM; in the experiment with COLO 205 colon it was 7.45 µM; with CAKI-1 renal it was 3.87 µM; with NCI/ADR-RES ovarian it was more than 25 µM; with CCRF-CEM leukemia, 7.05 µM; in the experiment with 786-0 renal it was 3.65 µM. For the same molecule, the GI50 with RXF 393 renal was 0.428 µM; with DU-145 prostate, more than 13.4 µM; in the experiment with NCI-H460 lung, 8.13 µM; in the experiment with SF-295 CNS, 0.338 µM. Further, the TGI in the experiment with U251 CNS, in the experiment on COLO 205 colon, in the experiment on CAKI-1 renal, in the experiment on NCI/ADR-RES ovarian, in the experiment with CCRF-CEM leukemia and with 786-0 renal was more than 25 µM throughout. The TGI in the experiment with RXF 393 renal is more than 17.9 µM; with DU-145 prostate, more than 25 µM; in the experiment with NCI-H460 lung, more than 25 µM; with SF-295 CNS, more than 7.49 µM.
On to `O=c1oc2ccc(Br)cc2c(=O)n1-c1ccc(I)cc1F`, for which the GI50 was 0.375 µM with U251 CNS; 3.97 µM with COLO 205 colon; 0.229 µM in the experiment on CAKI-1 renal; 0.355 µM in the experiment with NCI/ADR-RES ovarian; 0.625 µM in the experiment with CCRF-CEM leukemia; 1.96 µM with 786-0 renal. Moreover, the GI50 in the experiment with RXF 393 renal is 0.396 µM; with DU-145 prostate, 0.494 µM; with NCI-H460 lung, 0.367 µM; in the experiment on SF-295 CNS it was 1.5 µM. The TGI in the experiment with U251 CNS is 19.3 µM; in the experiment on COLO 205 colon, 15.1 µM; with CAKI-1 renal, 1.16 µM; in the experiment with NCI/ADR-RES ovarian, 2.32 µM; with CCRF-CEM leukemia, 6.82 µM; with 786-0 renal, 6.16 µM. The TGI in the experiment with RXF 393 renal came out at 1.93 µM; with DU-145 prostate, 26.9 µM; with NCI-H460 lung, 5.57 µM; with SF-295 CNS, 3.12 µM.
In the case of `COc1cc2c(cc1OC)C1Cc3cc(OC)c(OC)cc3C(C2)N1C`, the TGI is more than 100 µM with U251 CNS; more than 75 µM in the experiment on COLO 205 colon; more than 100 µM in the experiment on CAKI-1 renal; more than 75 µM in the experiment on NCI/ADR-RES ovarian; more than 100 µM in the experiment on CCRF-CEM leukemia; more than 100 µM with 786-0 renal. Moreover, the TGI was more than 75 µM in the experiment with RXF 393 renal, more than 75 µM with DU-145 prostate, more than 100 µM with NCI-H460 lung and more than 100 µM with SF-295 CNS. In addition, the GI50 is 27.4 µM and > 100 µM in the experiment with CCRF-CEM leukemia; 30.3 µM and 78.9 µM with NCI-H460 lung.
On to `O=C(Nc1ccccc1)c1cc(S(=O)(=O)Nc2nc3ccccc3o2)c(SCc2ccccc2)cc1Cl`, for which the GI50 in the experiment on U251 CNS is 17.8 µM; with COLO 205 colon, 36.7 µM; in the experiment with CAKI-1 renal, 19.3 µM; in the experiment on NCI/ADR-RES ovarian, 26.1 µM; with CCRF-CEM leukemia it was 11.4 µM; in the experiment on 786-0 renal, 17.3 µM. Also, the GI50 was 19.7 µM with RXF 393 renal, 16.5 µM in the experiment with DU-145 prostate, 20.8 µM with NCI-H460 lung and 18.5 µM with SF-295 CNS. Also, the TGI in the experiment on U251 CNS is 35 µM; with COLO 205 colon it was more than 100 µM; with CAKI-1 renal it was 35.5 µM; with NCI/ADR-RES ovarian, 66.3 µM; in the experiment on CCRF-CEM leukemia, 28.5 µM; with 786-0 renal it was 38.2 µM. Also, the TGI was 47.7 µM with RXF 393 renal, 32.4 µM in the experiment on DU-145 prostate, 77 µM in the experiment on NCI-H460 lung and 33 µM in the experiment with SF-295 CNS.
